Test results from patent US20250170132A1, “SALTS AND POLYMORPHIC FORMS OF MENIN INHIBITORS AND PHARMACEUTICAL COMPOSITIONS THEREOF” (Syndax Pharmaceuticals, Inc., priority 2023, published 2025).

What was measured:
Format in all cases: physicochemical
[1] = Solution stability studies at accelerated conditions (counterion-related degradation; Impurity A formation vs temperature, pH, time)
Text: FIG. 32 depicts Impurity A formation as a function of temperature, pH, and time in solution.
Compound A monocitrate monohydrate has at least two advantageously and unexpected characteristics. Both alone and in comparison, with Compound A salts known in the art (e.g. Compound A fumarate salts). […] Second, in the manufacturing process, Compound A fumarate requires a separate slurrying step which results in a solvate with an organic solvent. Compound A monocitrate monohydrate salt is isolated directly from ethanol:water, no slurrying step is required. […] Additionally, the Compound A monocitrate forms a monohydrate instead of a solvate with one or more organic molecules.

[2] = Approximate solubility estimation in 24 solvents; settings: thermodynamic from solid
Procedure: About 10 mg of Compound A monocitrate monohydrate was weighed into a 4.0 mL vial and 25 μL of solvent was added at RT. The solution was shaken and stirred. If no clear solution was obtained, another 25 μL was added and this was repeated until 4.0 mL solvent is added.

[3] = Polymorph screen: anti-solvent addition
Procedure: (§1) X-ray powder diffraction (XRPD) • Instrument: Panalytical Empyrean • Parameters: X-Ray tube Cu (Kα radiation); Power: 45 kV×40 mA • Scanning range: 2 to 40 2θ (degree) • Step size: 0.01 degree • Scanning speed: 6.33 degree (20) per minute Thermogravimetric analysis (TGA) • Instrument: TA Instruments Discovery TGA • Parameters: Ramp 10° C. per minute, 25 to 300° C., 50 mL/min N2 sweep Differential scanning calorimetry (DSC) • Instrument: TA Instruments Discovery DSC • Parameters: Ramp 10° C. per minute, up to 300° C. Polarized light microscopy (PLM) • Instrument: Nikon Eclipse Ci POL • Camera: Nikon DS-Fi3 • Software: Nikon NIS Elements
Experiments using 10 different techniques including using techniques such as anti-solvent addition, solid vapor diffusion, liquid vapor diffusion, slurry (at RT and 50° C.), slow evaporation, polymer induced crystallization, thermal cycling, sonication, and wet grinding.
Obtained solids were tested by XRPD (Table 30).

[4] = Polymorph screen: slurry at RT
Procedure: as §1
Slurry at RT—About 40 mg API was suspended and stirred in different solvents in 4 mL vials at RT. The solids in the slurry were characterized by XRPD after 5-7 days (Table 33).

[5] = Polymorph screen: slow evaporation; settings: Diethylamine, 50° C.
Procedure: as §1
The vials were covered with paraffin film with 3-5 holes and placed at specified temperature for evaporation. The obtained solids were characterized by XRPD (Table 35).

[6] = Polymorph screen: polymer-induced crystallization
Procedure: as §1
The obtained solids were characterized by XRPD after 7-10 days (Table 36).

[7] = Polymorph screen: temperature cycling; settings: temperature cycling 50→40→30→20→5 °C, total 2 cycles, each step 4 h, isolated at RT, XRPD
Procedure: as §1
The obtained solids were characterized by XRPD (Table 37).

[8] = Polymorph screen: sonication induced crystallization
Procedure: as §1
Sonication induced crystallization—About 40 mg API was suspended and sonicated in different solvents in 4 mL vials at RT. The solids in the slurry were characterized by XRPD after 1-day (Table 38).

[9] = Aqueous solubility of Compound A salts
Procedure: Solubility of Compound A citrate was determined in 3 different types of matrices: unbuffered water, citrate-buffered solutions from pH 3 to 6, and formulations consisting of citrate, advantame, methylparaben sodium, potassium sorbate, and sodium chloride at pH ranging from 3 to 6. Solubility in unbuffered water at ambient temperature was 38.5 mg/mL.
The target pH was reassessed when the F3 formulation was developed. Compound A citrate solubility studies were performed initially in simple buffered solutions to assess solubility trends as a function of pH. […] The target concentration of Compound A was therefore changed to 40 mg/mL as a compromise between drug substance and preservatives dissolution rate and stability.

Structure (SMILES): CCN(C(=O)c1cc(F)ccc1Oc1cncnc1N1CC2(CCN(C[C@H]3CC[C@H](NS(=O)(=O)CC)CC3)CC2)C1)C(C)C [Compound A monocitrate monohydrate]
- reaction of counterion with the pyrimidine ring of Compound A (degradation) [1]: does not react with the pyrimidine ring of Compound A
- solubility ([2]; aqueous with cosolvent or surfactant or cyclodextrin, 1,4-dioxane/water (7/3), heated for few seconds using heat gun): 84 to 105 mg/mL
- solubility ([2]; aqueous with cosolvent or surfactant or cyclodextrin, 1-PrOH/water (1/1), heated for few seconds using heat gun): 161 to 242 mg/mL
- solubility ([2]; aqueous with cosolvent or surfactant or cyclodextrin, Acetone/H2O (9:1 v/v), RT): 15 to 17.5 mg/mL
- solubility ([2]; aqueous with cosolvent or surfactant or cyclodextrin, MeOH/water (7/3), heated for few seconds using heat gun): 93 to 186 mg/mL
- solubility ([2]; aqueous with cosolvent or surfactant or cyclodextrin, THF/water (1/1), heated for few seconds using heat gun): 141 to 212 mg/mL
- solubility ([2]; organic solvent or mixture, 2-MeTHF, RT): < 2.9 mg/mL
- solubility ([2]; organic solvent or mixture, Anisole, RT): < 3 mg/mL
- solubility ([2]; organic solvent or mixture, Benzene, RT): < 2.9 mg/mL
- solubility ([2]; organic solvent or mixture, CPME, RT): < 2.1 mg/mL
- solubility ([2]; organic solvent or mixture, Chloroform, RT): < 2.3 mg/mL
- solubility ([2]; organic solvent or mixture, Cyclohexane, RT): < 2.3 mg/mL
- solubility ([2]; organic solvent or mixture, DMA, RT): 81 to 162 mg/mL
- solubility ([2]; organic solvent or mixture, DMF, RT): 80 to 160 mg/mL
- solubility ([2]; organic solvent or mixture, Diethylamine, RT): 170 to 340 mg/mL
- solubility ([2]; organic solvent or mixture, Diisopropyl ether, RT): < 2.3 mg/mL
- solubility ([2]; organic solvent or mixture, Dimethoxyethane (DME), RT): < 2.4 mg/mL
- solubility ([2]; organic solvent or mixture, EtOAc, RT): < 2.3 mg/mL
- solubility ([2]; organic solvent or mixture, Heptane, RT): < 2.8 mg/mL
- solubility ([2]; organic solvent or mixture, IPA, RT): < 2.8 mg/mL
- solubility ([2]; organic solvent or mixture, MEK, RT): < 2.4 mg/mL
- solubility ([2]; organic solvent or mixture, MTBE, RT): < 2.8 mg/mL
- solubility ([2]; organic solvent or mixture, NMP, RT): 120 to 240 mg/mL
- solubility ([2]; organic solvent or mixture, Propylene glycol, heated for few seconds using heat gun): 22.2 to 27.8 mg/mL
- solubility ([2]; organic solvent or mixture, THF, RT): < 2 mg/mL
- Crystal Form ([3]; solvent DMA, antisolvent CPME): Form A
- Crystal Form ([3]; solvent DMA, antisolvent EtOAc): Form A
- Crystal Form ([3]; solvent DMA, antisolvent Toluene): Form A
- Crystal Form ([3]; solvent DMSO, antisolvent Benzene, *Loss of crystallinity): Form A*
- Crystal Form ([3]; solvent NMP, antisolvent IPAc): Form A
- Crystal Form ([4]; Acetone): Form A
- Crystal Form ([4]; Benzene): Form A
- Crystal Form ([4]; CHCl3): Form A
- Crystal Form ([4]; CPME): Form A
- Crystal Form ([4]; DMA:Benzene 1:9): Form A
- Crystal Form ([4]; DMA:CHCl3 1:9): Form A
- Crystal Form ([4]; DMA:EtOH 1:9): Form A
- Crystal Form ([4]; DMF:EtOAc 1:9): Form A
- Crystal Form ([4]; DMSO (SL→Gel)): Amorphous
- Crystal Form ([4]; DMSO:IPAc 1:9): Form A
- Crystal Form ([4]; Diethylamine:EtOH 3:7): FB-2
- Crystal Form ([4]; IPA): Form A
- Crystal Form ([4]; MIBK): Form A
- Crystal Form ([4]; MeOH:MeCN 9:1): Form A
- Crystal Form ([4]; NMP:IPA 1:9): Form A
- Crystal Form ([4]; THF:H2O (aw = 0.2)): Form A
- Crystal Form ([4]; THF:H2O (aw = 0.4)): Form A
- Crystal Form ([4]; THF:H2O (aw = 0.6)): Form A
- Crystal Form ([4]; THF:H2O (aw = 0.8)): Form A
- Crystal Form ([4]; Toluene): Form A
- Crystal Form [5]: FB-2
- Crystal Form ([6]; polymer Brij, NMP:H2O 1:9, 40° C.): Amorphous
- Crystal Form ([6]; polymer PVC, DMF:DCM 1:9, RT): Form A
- Crystal Form ([6]; polymer PVP, DMA:H2O 1:9, 40° C.): Form A
- Crystal Form ([6]; polymer PVP, NMP:H2O 1:9, 40° C.): Form A
- Crystal Form ([7]; 1,4-dioxane:H2O 9:1): Form A*
- Crystal Form ([7]; 2-MeTHF:DMF 9:1): Form A*
- Crystal Form ([7]; DMSO:Toluene 1:9): Form A*
- Crystal Form ([7]; NMP:nPA 1:9): Form A*
- Crystal Form ([8]; DMSO:EtOAc 1:9, XRPD after 1 day): Form A
- Crystal Form ([8]; THF, XRPD after 1 day): Form A
- Effect of solution pH on solubility ([9]; citrate-buffered solutions and formulations, pH 3 to 6): maxima at both pH 3 and 6
- USP solubility definition ([9]; physiological pH range from 1.2 through 6.8): soluble
- Solubility trend as a function of pH ([9]; simple buffered solutions, pH 3.0 to 6.0): highest at pH 3.0
- solubility ([9]; unbuffered water, ambient temperature, read-out: Solubility): 38.5 mg/mL
